Consider three compounds from patent publication US10639298B2 (Biohaven Pharmaceutical Holding Company Ltd., priority 2015, dated 2020).

A short description of data set [1]: Rat pharmacokinetic studies of prodrug and released riluzole (IV or oral). In kind it is in vivo, Sprague-Dawley rats. Particulars: for clearance: read-out: Compound of the disclosure Cl (converted); for Vd: read-out: Compound of the disclosure Vss. As to the method: Rat Pharmacokinetic Studies of the Compounds of the Disclosure:
Blood samples were collected at pre-determined time points including a 0 h time point and usually between 7 and 8 additional time points not exceeding a 24 h period.
Plasma samples were extracted and analyzed using the methods described in Plasma Sample Extraction and Analysis. All data are expressed as ng/mL of the free base. Samples that were below the limit of quantification (0.5 ng/mL) were not used in the calculation of averages.
Pharmacokinetic parameters were calculated from the time course of the plasmaconcentrations. Pharmacokinetic parameters were determined with Phoenix Winnonlin (v6.3) software using a non-compartmental model. The maximum plasma concentration (Cmax) and time to the maximum plasma concentration (Tmax) of the compound of the disclosure were observed from the data. The area under the concentration-time curve (AUC) of the compound of the disclosure was calculated using the trapezoidal formula with calculation to the last quantifiable data point, and to infinity if applicable. Plasma half-life (t½) was calculated from 0.693/slope of the terminal elimination phase. Mean residence time, MRT, was calculated by dividing the area under the moment curve (AUMC) by the AUC. Any samples below the limit of quantitation (0.5 ng/mL) were treated as zero for pharmacokinetic data analysis.
Plasma Sample Extraction and Analysis:
Analytical stock solutions (1.00 mg/mL of the free compound of the disclosure) were prepared in DMSO. Standards were prepared in diluted matrix containing 1 part 10% formic acid and 9 parts Sprague-Dawley rat plasma containing sodium heparin as the anticoagulant (pre-diluted with 1 part of 0.5M citric acid and 9 parts whole blood). Working solutions were prepared in 50:50 acetonitrile:water. Working solutions were then added to plasma to make calibration standards to final concentrations of 1000, 500, 100, 50, 10, 5, 1, and 0.5 ng/mL. Standards contained both the test article and riluzole. Standards were treated identically to the study samples.
Plasma samples were extracted via acetonitrile precipitation on a Tomtec Quadra 96-Model 320 liquid handling system in a 96-well plate format.

Data set [2] deals with Melanoma C8161 cells. The data set can be described thus: Inhibition of human melanoma cell xenograft growth. In kind it is in vivo, nude mice. The following applies: P<0.01 (t test). How it is done: Melanoma C8161 cells were inoculated s.c. into nude mice at […]. […] Mice were treated every day for 21 days, and tumor sizes were measured twice weekly with a Vernier caliper.
For orientation: Xenograft models place foreign cells or tissue in a host animal.

Data set [3] is described as follows: PK in fasted male mice, prodrug and released riluzole (IV, PO). Particulars: mouse, in vivo; for AUC(0-t): read-out: Prodrug AUClast (Mean).
Data set [4] concerns Stage III and IV melanoma. Particulars: 14 days of treatment, cited from earlier work.
[5] abbreviates: fasted male Sprague Dawley rats, IV, prodrug dose 2.8 mg/Kg.
Setting [6] is: fasted male Sprague Dawley rats, PO 14.6 mg/kg.
[7] abbreviates: rat, plasma, fasted male Sprague Dawley rats, IV, prodrug dose 2.8 mg/Kg, read-out: Compound of the disclosure AUClast.
[8] abbreviates: rat, plasma, fasted male Sprague Dawley rats, IV, prodrug dose 2.8 mg/Kg.
The mark [9] stands for this setting: rat, plasma, fasted male Sprague Dawley rats, PO 5 mg/kg.

Read-outs that look alike come from different tables or passages of the source.

Consider `CN(CC(=O)Nc1nc2ccc(OC(F)(F)F)cc2s1)C(=O)CNC(C)(C)C` [Example 125, 2-(tert-butylamino)-N-methyl-N-(2-oxo-2-((6-(trifluoromethoxy)benzo[d]thiazol-2-yl)amino)ethyl)acetamide], for which, in data set [1] (setting [5]), the “Compound of the disclosure AUClast” value turned out to be 1526 ng·h/mL, the “Compound of the disclosure Cl” value was 29.7 mL/min/kg and the “Compound of the disclosure Vss” value was 3.57 L/kg. The “Compound of the disclosure t1/2” value in data set [1] (fasted male Sprague Dawley rats, IV, prodrug dose 2.8 mg/Kg, 2.8 mg/kg) came out at 115 min. In data set [1] (setting [6]), the “Prodrug AUClast (Mean)” value came to 2259 ng·h/mL, the “Prodrug Cmax (Mean)” value is reported as 213 ng/mL, the “Prodrug t1/2 (Mean)” value stood at 228 min and the “Prodrug tmax (Mean)” value is 108 min. In data set [1] (intravenous administration), the “Half life on conversion to Riluzole” value is listed as “moderate to long half life”. In data set [1] (oral administration), the “Half life on conversion to Riluzole” value was “long half life” and the “Oral bioavailability” value is listed as “high oral bioavailability”. For the same compound, in data set [1] (setting [7]), the AUC(0-t) was determined as 1600 ng·h/mL. In addition, in data set [1] (setting [8]), the clearance is 27.8 mL/min/kg and the Vd is 3.51 L/kg. The “Tumor volume vs untreated or vehicle-treated controls” value in data set [2] (4.9 mg/kg (threefold lower in molar terms) p.o. gavage every day for 21 days) is listed as “significant reduction in tumor volume”. Moreover, the “Tumor volume vs untreated or vehicle-treated controls” value in data set [2] (14.6 mg/kg (equimolar to riluzole) p.o. gavage every day for 21 days) was “significant reduction in tumor volume”.

Regarding `CN(CC(=O)Nc1nc2ccc(OC(F)(F)F)cc2s1)C(=O)CNC(=O)CN` [Example 204, 2-Amino-N-{[methyl({[6-(trifluoromethoxy)-1,3-benzothiazol-2-yl]carbamoyl}methyl)carbamoyl]methyl}acetamide], the AUC(0-t) was determined as 232 ng·h/mL in data set [1] (setting [7]); 0.9 ng·h/mL in data set [1] (rat, plasma, fasted male Sprague Dawley rats, PO 5 mg/kg, read-out: Prodrug AUClast (Mean)); 532 ng·h/mL in data set [3] (IV 1 mg/kg); 3.85 ng·h/mL in data set [3] (PO 5 mg/kg). Moreover, the clearance in data set [1] (setting [8]) is 220 mL/min/kg; in data set [3] (IV 1 mg/kg, read-out: Prodrug CL (Mean) (converted)), 32.3 mL/min/kg. For the same compound, the Vd was found to be 2.47 L/kg in data set [1] (setting [8]) and 0.46 L/kg in data set [3] (IV 1 mg/kg, read-out: Prodrug Vss (Mean)). Also, the half-life is 14.2 min in data set [1] (rat, plasma, fasted male Sprague Dawley rats, IV, prodrug dose 2.8 mg/Kg, read-out: Compound of the disclosure t1/2 (converted)) and 17.4 min in data set [3] (IV 1 mg/kg, read-out: Prodrug T1/2 (Mean) (converted)). Also, the figures for the Cmax in data set [1] (setting [9]) and in data set [3] (PO 5 mg/kg) were 1.84 ng/mL and 4.71 ng/mL, respectively. The Tmax in data set [1] (setting [9]) was 16.8 min; in data set [3] (PO 5 mg/kg), 19.8 min. The AUC(0-inf) in data set [3] (IV 1 mg/kg, read-out: Prodrug AUCinf (Mean)) is 533 ng·h/mL.

As to `Nc1nc2ccc(OC(F)(F)F)cc2s1` [riluzole], the “Patients with clinical or radiologic evidence of tumor response” value is reported as “four of 12” in data set [4] (listed as Riluzole) and “four of twelve” in data set [4].

As usually defined, the Cmax is the highest concentration seen after dosing. As a reminder, the Tmax is the time from dosing to the highest level.
